{"source": "patent US12629374B2", "about": "“Antimalarial agents” (Merck Sharp & Dohme LLC, priority 2020, dated 2026)", "data": [{"system": "ring stage parasites", "assay": "Parasite growth potency assay, 72 hours, LDH readout", "type": "cell-based", "details": "72 h", "summary_of_the_method": "(§1)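 Parasite growth was quantified by LDH assay after a −80 °C freeze-thaw. Before that, compound was incubated for 72 h at 37 °C under humidified gas with ring-stage cultures adjusted to 0.7% parasitemia and 2% haematocrit in serum- and albumax-supplemented RPMI-Hepes.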", "units": {"EC50": "nM"}, "values": [{"smiles": "CCC1(CC)CC(=O)N([C@H](c2cccc(OS(=O)(=O)F)c2)c2cccc(C(=O)N[C@H]3CCOc4ccccc43)c2)C(=N)N1", "note": "[Example 149A, [1-[[3-[[(4S)-chroman-4-yl]carbamoyl]phenyl]-(3-fluorosulfonyloxyphenyl)methyl]-4,4-diethyl-6-oxo-hexahydropyrimidin-2-ylidene]ammonium; 2,2,2-trifluoroacetate]", "EC50": 1.5}, {"smiles": "CCC1(CC)CC(=O)N([C@@H](c2cccc(OS(=O)(=O)F)c2)c2cccc(C(=O)N[C@H]3CCOc4ccccc43)c2)C(=N)N1", "note": "[Example 149B, [1-[[3-[[(4S)-chroman-4-yl]carbamoyl]phenyl]-(3-fluorosulfonyloxyphenyl)methyl]-4,4-diethyl-6-oxo-hexahydropyrimidin-2-ylidene]ammonium; 2,2,2-trifluoroacetate]", "EC50": 57.6}, {"smiles": "CCC1(CC)CC(=O)N([C@H](c2ccc(OS(=O)(=O)F)cc2)c2cccc(C(=O)N[C@H]3CCOc4ccccc43)c2)C(=N)N1", "note": "[Example 150, [1-[[3-[[(4S)-chroman-4-yl]carbamoyl]phenyl]-(4-fluorosulfonyloxyphenyl)methyl]-4,4-diethyl-6-oxo-hexahydropyrimidin-2-ylidene]ammonium; 2,2,2-trifluoroacetate]", "EC50": 2.8}]}, {"system": "ring stage parasites", "assay": "Parasite growth potency assay, 72 hours, LDH readout", "type": "cell-based", "details": "72 h, parasite growth measured by LDH assay after 72 hours at 37° C.; 0.7% rings, 2% haematocrit; read-out: EC50", "summary_of_the_method": "as §1", "units": {"EC50": "nM"}, "values": [{"smiles": "CCC1(CC)CC(=O)N(Cc2cc(F)cc(C(=O)N[C@@H]3c4ccccc4OC(C)(C)[C@H]3O)c2)C(=N)N1", "note": "[Example 141, [4,4-diethyl-1-[[3-fluoro-5-[[(3S,4R)-3-hydroxy-2,2-dimethyl-chroman-4-yl]carbamoyl]phenyl]methyl]-6-oxo-hexahydropyrimidin-2-ylidene]ammonium; 2,2,2-trifluoroacetate]", "EC50": 0.8}, {"smiles": "CCC1(CC)CC(=O)N([C@H](CC(C)(C)O)c2cccc(C(=O)N[C@H]3CC(C)(C)Oc4ccccc43)c2)C(=N)N1", "note": "[Example 145, 3-[1-(4,4-diethyl-2-imino-6-oxo-hexahydropyrimidin-1-yl)-3-hydroxy-3-methyl-butyl]-N-[(4S)-2,2-dimethylchroman-4-yl]benzamide]", "EC50": 0.7}, {"smiles": "CCC1(CC)CC(=O)N([C@H](COCCOC)c2cccc(C(=O)NC3c4ccccc4CC3(C)O)c2)C(=N)N1", "note": "(stereo partly drawn) [Example 146A, 3-[(1S)-1-(4,4-diethyl-2-imino-6-oxo-hexahydropyrimidin-1-yl)-2-(2-methoxyethoxy)ethyl]-N-(2-hydroxy-2-methyl-indan-1-yl)benzamide]", "EC50": 5.3}, {"smiles": "CCC1(CC)CC(=O)N([C@H](CCOC)c2cccc(C(=O)NC3c4ccccc4OC(C(F)(F)F)C3O)c2)C(=N)N1", "note": "(stereo partly drawn) [Example 151, [4,4-diethyl-1-[(1R)-1-[3-[[3-hydroxy-2-(trifluoromethyl)chroman-4-yl]carbamoyl]phenyl]-3-methoxy-propyl]-6-oxo-hexahydropyrimidin-2-ylidene]ammonium; 2,2,2-trifluoroacetate]", "EC50": 1.1}, {"smiles": "CCC1(CC)CC(=O)N([C@H](CCOC)c2cccc(C(=O)N[C@@H]3c4ccccc4OC[C@@H]3O)c2)C(=N)N1", "note": "[Example 152A, [4,4-diethyl-1-[(1R)-1-[3-[[(3R,4R)-3-hydroxychroman-4-yl]carbamoyl]phenyl]-3-methoxy-propyl]-6-oxo-hexahydropyrimidin-2-ylidene]ammonium; 2,2,2-trifluoroacetate]", "EC50": 8.8}, {"smiles": "CCC1(CC)CC(=O)N([C@H](CCOC)c2cccc(C(=O)N[C@@H]3c4ccccc4OC[C@H]3O)c2)C(=N)N1", "note": "[Example 152B, [4,4-diethyl-1-[(1R)-1-[3-[[(3S,4R)-3-hydroxychroman-4-yl]carbamoyl]phenyl]-3-methoxy-propyl]-6-oxo-hexahydropyrimidin-2-ylidene]ammonium; 2,2,2-trifluoroacetate]", "EC50": 2}, {"smiles": "CCC1(CC)CC(=O)N([C@H](CCS(C)(=O)=O)c2cccc(C(=O)N[C@@H]3c4ccccc4C[C@H]3O)c2)C(=N)N1", "note": "[Example 153, [4,4-diethyl-1-[1-[3-[[(1R,2R)-2-hydroxyindan-1-yl]carbamoyl]phenyl]-3-methylsulfonyl-propyl]-6-oxo-hexahydropyrimidin-2-ylidene]ammonium; 2,2,2-trifluoroacetate]", "EC50": 77.8}, {"smiles": "CCC1(CC)CC(=O)N([C@H](CCS(C)(=O)=O)c2cccc(C(=O)N[C@@H]3c4ccccc4C[C@@]3(C)O)c2)C(=N)N1", "note": "[Example 154A, 3-[1-(4,4-diethyl-2-imino-6-oxo-hexahydropyrimidin-1-yl)-3-methylsulfonyl-propyl]-N-[(1R,2R)-2-hydroxy-2-methyl-indan-1-yl]benzamide]", "EC50": 54}, {"smiles": "CCC1(CC)CC(=O)N([C@H](CCS(C)(=O)=O)c2cccc(C(=O)N[C@@H]3c4ccccc4OC(C)(C)[C@H]3O)c2)C(=N)N1", "note": "[Example 155, [4,4-diethyl-1-[1-[3-[[(3S,4R)-3-hydroxy-2,2-dimethyl-chroman-4-yl]carbamoyl]phenyl]-3-methylsulfonyl-propyl]-6-oxo-hexahydropyrimidin-2-ylidene]ammonium; 2,2,2-trifluoroacetate]", "EC50": 17.2}, {"smiles": "CCC1(CC)CC(=O)N([C@H](CCS(C)(=O)=O)c2cccc(C(=O)N[C@H]3CC(C)(C)Oc4ccccc43)c2)C(=N)N1", "note": "[Example 156, [1-[1-[3-[[(4S)-2,2-dimethylchroman-4-yl]carbamoyl]phenyl]-3-methylsulfonyl-propyl]-4,4-diethyl-6-oxo-hexahydropyrimidin-2-ylidene]ammonium; 2,2,2-trifluoroacetate]", "EC50": 5.7}, {"smiles": "CCC1(CC)CC(=O)N([C@H](CCOC(F)F)c2cccc(C(=O)N[C@@H]3c4ccccc4C[C@H]3O)c2)C(=N)N1", "note": "[Example 157, [1-[3-(difluoromethoxy)-1-[3-[[(1R,2R)-2-hydroxyindan-1-yl]carbamoyl]phenyl]propyl]-4,4-diethyl-6-oxo-hexahydropyrimidin-2-ylidene]ammonium; 2,2,2-trifluoroacetate]", "EC50": 1.8}, {"smiles": "CCC1(CC)CC(=O)N([C@H](CCOC(F)F)c2cccc(C(=O)N[C@@H]3c4ccccc4C[C@@]3(C)O)c2)C(=N)N1", "note": "[Example 158A, 3-[1-(4,4-diethyl-2-imino-6-oxo-hexahydropyrimidin-1-yl)-3-(difluoromethoxy)propyl]-N-[(1R,2R)-2-hydroxy-2-methyl-indan-1-yl]benzamide]", "EC50": 2.6}, {"smiles": "CCC1(CC)CC(=O)N([C@H](CCOC(F)F)c2cccc(C(=O)N[C@@H]3c4ccccc4OC(C)(C)[C@H]3O)c2)C(=N)N1", "note": "[Example 159, [1-[3-(difluoromethoxy)-1-[3-[[(3S,4R)-3-hydroxy-2,2-dimethyl-chroman-4-yl]carbamoyl]phenyl]propyl]-4,4-diethyl-6-oxo-hexahydropyrimidin-2-ylidene]ammonium; 2,2,2-trifluoroacetate]", "EC50": 0.8}, {"smiles": "CCC1(CC)CC(=O)N([C@H](CCOC(F)F)c2cccc(C(=O)N[C@H]3CC(C)(C)Oc4ccccc43)c2)C(=N)N1", "note": "[Example 160, [1-[3-(difluoromethoxy)-1-[3-[[(4S)-2,2-dimethylchroman-4-yl]carbamoyl]phenyl]propyl]-4,4-diethyl-6-oxo-hexahydropyrimidin-2-ylidene]ammonium; 2,2,2-trifluoroacetate]", "EC50": 0.5}, {"smiles": "CCC1(CC)CC(=O)N([C@H](CCS(C)(=O)=O)c2cccc(C(=O)N[C@H]3CCOc4ccccc43)c2)C(=N)N1", "note": "[Example 161, [1-[1-[3-[[(4S)-chroman-4-yl]carbamoyl]phenyl]-3-methylsulfonyl-propyl]-4,4-diethyl-6-oxo-hexahydropyrimidin-2-ylidene]ammonium; 2,2,2-trifluoroacetate]", "EC50": 23}, {"smiles": "CCC1(CC)CC(=O)N([C@H](CCS(C)(=O)=O)c2cccc(C(=O)N[C@H]3C[C@H](C(F)(F)F)Oc4ccccc43)c2)C(=N)N1", "note": "[Example 162, [4,4-diethyl-1-[3-methylsulfonyl-1-[3-[[(2R,4S)-2-(trifluoromethyl)chroman-4-yl]carbamoyl]phenyl]propyl]-6-oxo-hexahydropyrimidin-2-ylidene]ammonium; 2,2,2-trifluoroacetate]", "EC50": 5.2}, {"smiles": "CCC[C@H](c1cccc(C(=O)N[C@@H]2c3ccccc3OC[C@@]2(C)O)c1)N1C(=N)NC(CC)(CC)CC1=O", "note": "[Example 163A, 3-[(1R)-1-(4,4-diethyl-2-imino-6-oxo-hexahydropyrimidin-1-yl)butyl]-N-[(3S,4R)-3-hydroxy-3-methyl-chroman-4-yl]benzamide]", "EC50": 0.3}, {"smiles": "CCC1(CC)CC(=O)N([C@H](CCOC(F)F)c2cccc(C(=O)N[C@H]3CCOc4ccccc43)c2)C(=N)N1", "note": "[Example 164, [1-[1-[3-[[(4S)-chroman-4-yl]carbamoyl]phenyl]-3-(difluoromethoxy)propyl]-4,4-diethyl-6-oxo-hexahydropyrimidin-2-ylidene]ammonium; 2,2,2-trifluoroacetate]", "EC50": 0.9}]}, {"system": "ring stage parasites", "assay": "Parasite growth potency assay, 72 hours, LDH readout", "type": "cell-based", "details": "parasite growth measured by LDH assay after 72 hours at 37° C.; 0.7% rings, 2% haematocrit; read-out: EC50", "summary_of_the_method": "as §1", "units": {"EC50": "nM"}, "values": [{"smiles": "CCC1(CC)CC(=O)N([C@H](COCCOC)c2cccc(C(=O)NC3c4ccccc4CC3(C)O)c2)C(=N)N1", "note": "(stereo partly drawn) [Example 146B, 3-[(1S)-1-(4,4-diethyl-2-imino-6-oxo-hexahydropyrimidin-1-yl)-2-(2-methoxyethoxy)ethyl]-N-(2-hydroxy-2-methyl-indan-1-yl)benzamide]", "EC50": 6.4}, {"smiles": "CCC1(CC)CC(=O)N([C@H](CCS(C)(=O)=O)c2cccc(C(=O)N[C@@H]3c4ccccc4C[C@]3(C)O)c2)C(=N)N1", "note": "[Example 154B, 3-[1-(4,4-diethyl-2-imino-6-oxo-hexahydropyrimidin-1-yl)-3-methylsulfonyl-propyl]-N-[(1R,2S)-2-hydroxy-2-methyl-indan-1-yl]benzamide]", "EC50": 69}, {"smiles": "CCC1(CC)CC(=O)N([C@H](CCOC(F)F)c2cccc(C(=O)N[C@@H]3c4ccccc4C[C@]3(C)O)c2)C(=N)N1", "note": "[Example 158B, 3-[1-(4,4-diethyl-2-imino-6-oxo-hexahydropyrimidin-1-yl)-3-(difluoromethoxy)propyl]-N-[(1R,2S)-2-hydroxy-2-methyl-indan-1-yl]benzamide]", "EC50": 2.4}, {"smiles": "CCC[C@H](c1cccc(C(=O)N[C@@H]2c3ccccc3OC[C@]2(C)O)c1)N1C(=N)NC(CC)(CC)CC1=O", "note": "[Example 163B, 3-[(1R)-1-(4,4-diethyl-2-imino-6-oxo-hexahydropyrimidin-1-yl)butyl]-N-[(3R,4R)-3-hydroxy-3-methyl-chroman-4-yl]benzamide]", "EC50": 0.4}]}]}
